Measured values published in patent publication US20230202989A1, “COMPOUNDS” (JANSSEN PHARMACEUTICA NV, priority 2020, published 2023).
Read-outs that look alike come from different tables or passages of the source.

Legend:
IL-1β = test: PBMC assay: inhibition of IL-1β release after LPS stimulation (MSD); format: cell-based; conditions: human PBMCs, 100 ng/ml LPS for 6 hrs, MSD, 96 well plates, read-out: IL1β IC50
In short: (§1)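 TNF (EC50) and IL-1β (IC50) were quantified by MSD in supernatants after 6 h stimulation with 100 ng/ml LPS. Thawed healthy-donor PBMCs, 7.5×10^4 per well, were exposed to 1:3 compound dilutions for 30 min beforehand at 37 °C.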

TNF = test: PBMC assay: TNF cytokine levels after LPS stimulation (MSD); format: cell-based; conditions: human PBMCs, 100 ng/ml LPS for 6 hrs
In short: as §1

Row | SMILES | IC50 (IL-1β; Homo sapiens, PBMC, 6 h) [nM] | EC50 (TNF; Homo sapiens, PBMC, 6 h) [nM] | further results
1 | CCN1CCC[C@@H](NC(=O)Cn2nc(C(C)C)c3cc(C(F)(F)F)ccc3c2=O)C1 [Final Cpd X9] | 90 | > 20000 | 
2 | CC(C)c1nn(CC(=O)N[C@H]2COC[C@H](O)C2)c(=O)c2ccc(C(F)(F)F)cc12 (mixture of isomers) [Final Cpd X148] | 6320 | > 20000 | 
3 | CCc1nn(CC(=O)N[C@H]2C[C@@](C)(O)C2)c(=O)c2ccc(Br)cc12 [Final Cpd 18] | 30 | > 10000 | 
4 | Cc1nnc2cc(NC(=O)Cn3nc(C(C)C)c4cc(C(F)(F)F)ccc4c3=O)ccn12 [Final Cpd X165] | 16100 | > 20000 | 
5 | CC(C)c1nn(CC(=O)Nc2cnn(C)c(=O)c2)c(=O)c2ccc(C(F)(F)F)cc12 [Final Cpd X151] | 7450 | > 20000 | 
6 | CCc1nn(CC(=O)Nc2ccncn2)c(=O)c2ccc(C3CC3)cc12 [Final Cpd 5] | 420 | > 10000 | 
7 | CC(C)c1nn(CC(=O)N[C@H]2C[C@](O)(C(F)(F)F)C2)c(=O)c2ccc(C(F)(F)F)cc12 [Final Cpd X65] |  |  | IC50 (IL-1β): 668 nM; EC50 (TNF): > 20000 nM
8 | CC(C)c1nn(CC(=O)Nc2ccc3c(c2)CCN3C(C)C)c(=O)c2ccc(C(F)(F)F)cc12 [Final Cpd X173] | > 20000 | > 20000 | 
9 | O=C(Cn1nc(CCC(F)(F)F)c2cc(C(F)(F)F)ccc2c1=O)Nc1ccc2nncn2c1 [Final Cpd X76] |  |  | IC50 (IL-1β): 829 nM; EC50 (TNF): > 20000 nM
10 | CCc1nn(CC(=O)Nc2ccc3nncn3c2)c(=O)c2ccc(C3CC3)cc12 [Final Cpd 3] | 124 | 14900 | 
11 | CC(C)c1nn(CC(=O)Nc2ccncn2)c(=O)c2ccc(Br)cc12 [Final Cpd 38] | < 25 | > 10000 | 
12 | CC(O)c1nn(CC(=O)Nc2ccc3nncn3c2)c(=O)c2ccc(C(F)(F)F)cc12 (centres unmarked) [Final Cpd X66] | 670 | > 20000 | 
13 | CC(C)c1nn(CC(=O)Nc2ccc3nncn3c2)c(=O)c2ccc(C(F)(F)F)cc12 [Final Cpd 8] | 76 | 13600 | 
14 | COC(C)c1nn(CC(=O)Nc2ccc3nncn3c2)c(=O)c2ccc(C(F)(F)F)cc12 (centres unmarked) [Final Cpd X102] | 1300 | > 20000 | 
15 | CCc1nn(CC(=O)N[C@H]2C[C@@](C)(O)C2)c(=O)c2ccc(C(F)F)cc12 [Final Cpd 17] | 540 | > 10000 | 
16 | CC(C)c1nn(CC(=O)Nc2ccn3ccnc3n2)c(=O)c2ccc(C(F)(F)F)cc12 [Final Cpd X127] | 2940 | > 20000 | 
17 | CC(C)c1nn(CC(=O)Nc2ccc3nnn(C)c3c2)c(=O)c2ccc(C(F)(F)F)cc12 [Final Cpd X49] | 400 | 9700 | 
18 | CCc1nn(CC(=O)Nc2ccc3nncn3c2)c(=O)c2ccc(C(F)(F)F)cc12 [Final Cpd X8] | 75 | 12200 | 
19 | CC(C)c1nn(CC(=O)Nc2cc(C#N)c3ncnn3c2)c(=O)c2ccc(C(F)(F)F)cc12 [Final Cpd X162] | 15000 | > 20000 | 
20 | CC(C)c1nn(CC(=O)Nc2ccc3c(ncn3C)n2)c(=O)c2ccc(C(F)(F)F)cc12 [Final Cpd X160] | 13400 | > 20000 | 

Row | SMILES | IC50 (IL-1β; Homo sapiens, PBMC, 6 h) [nM] | EC50 (TNF; Homo sapiens, PBMC, 6 h) [nM] | further results
21 | O=C(Cn1nc(C(F)F)c2cc(C(F)(F)F)ccc2c1=O)Nc1ccncn1 [Final Cpd X50] | 438 | > 20000 | 
22 | CC(C)c1nn(CC(=O)N[C@@H]2CC[C@@H]2O)c(=O)c2ccc(C(F)(F)F)cc12 [Final Cpd X115] |  |  | IC50 (IL-1β): 2020 nM; EC50 (TNF): > 20000 nM
23 | CC(C)c1nn(CC(=O)N[C@@H]2CCC[C@H]2O)c(=O)c2ccc(C(F)(F)F)cc12 [Final Cpd X86] | 915 | > 20000 | 
24 | CC(C)c1nn(CC(=O)N[C@H]2C[C@@](C)(O)C2)c(=O)c2ccc(C(F)(F)F)c(F)c12 [Final Cpd X17] | 147 | > 20000 | 
25 | CCN1CCCC(NC(=O)Cn2nc(C(C)C)c3cc(C(F)(F)F)ccc3c2=O)C1=O (centres unmarked) [Final Cpd X152] | 7500 | > 20000 | 
26 | COC(C)c1nn(CC(=O)N[C@H]2C[C@@](C)(O)C2)c(=O)c2ccc(C(F)(F)F)cc12 (some centres unmarked) [Final Cpd X107] | 1610 | > 20000 | 
27 | CC(C)c1nn(CC(=O)N[C@H]2CN(C3CC3)CC[C@H]2O)c(=O)c2ccc(C(F)(F)F)cc12 [Final Cpd X15, N-((3S,4R)-1-cyclopropyl-4-hydroxypiperidin-3-yl)-2-(4-isopropyl-1-oxo-6-(trifluoromethyl)phthalazin-2(1H)-yl)acetamide] | 122 | > 20000 | 
28 | CC(C)c1nn(CC(=O)Nc2ccc3c(c2)nnn3C)c(=O)c2ccc(C(F)(F)F)cc12 [Final Cpd X113] | 1860 | > 20000 | 
29 | CC(C)c1nn(CC(=O)N[C@H]2CC[C@](C)(O)CC2)c(=O)c2ccc(C(F)(F)F)cc12 [Final Cpd X78] | 861 | > 20000 | 
30 | CC(C)(F)c1nn(CC(=O)N[C@H]2C[C@@](C)(O)C2)c(=O)c2ccc(C(F)(F)F)cc12 [Final Cpd X145] | 4990 | > 20000 | 
31 | CC[C@]1(O)C[C@@H](NC(=O)Cn2nc(C(C)C)c3cc(Br)ccc3c2=O)C1 [X-1090, 2-(6-bromo-4-isopropyl-1-oxophthalazin-2(1H)-yl)-N-((1r,3s)-3-ethyl-3-hydroxycyclobutyl)acetamide] |  |  | IC50 (IL-1β; PBMC): 122 nM; EC50 (TNF; PBMC): > 20000 nM
32 | CC(c1nn(CC(=O)Nc2ccc3nncn3c2)c(=O)c2ccc(C(F)(F)F)cc12)C(F)(F)F (centres unmarked) [Final Cpd X59] | 561 | > 20000 | 
33 | Cc1cc(NC(=O)Cn2nc(C(C)C)c3cc(C(F)(F)F)ccc3c2=O)cn2ccnc12 [Final Cpd X92] | 970 | > 20000 | 
34 | CC(C)c1ccc2c(=O)n(CC(=O)N[C@H]3C[C@@](C)(O)C3)nc(C(C)C)c2c1 [Final Cpd 34] | < 120 | > 10000 | 
35 | CC(C)c1nn(CC(=O)NC2CCC(C)(C)OC2)c(=O)c2ccc(C(F)(F)F)cc12 (centres unmarked) [Final Cpd X128] | 2950 | > 20000 | 
36 | Cc1nnc2n1C[C@@H](NC(=O)Cn1nc(C(C)C)c3cc(C(F)(F)F)ccc3c1=O)CC2 (single isomer, unassigned) [Final Cpd X41] | 351 | > 20000 | 
37 | COC1(c2nn(CC(=O)Nc3ccc4nncn4c3)c(=O)c3ccc(C(F)(F)F)cc23)CC1 [Final Cpd X158] | 9990 | > 20000 | 
38 | CC(C)c1nn(CC(=O)Nc2ccc3nncn3c2)c(=O)c2ccc(C(F)(F)F)c(F)c12 [Final Cpd X26] | 185 | > 20000 | 
39 | CC(C)c1nn(CC(=O)Nc2ncc3ncn(C)c3n2)c(=O)c2ccc(C(F)(F)F)cc12 [Final Cpd X181] | > 20000 | > 20000 | 

Now from value to molecule, other results behind:

Row | IC50 (IL-1β; Homo sapiens, PBMC, 6 h) [nM] | EC50 (TNF; Homo sapiens, PBMC, 6 h) [nM] | SMILES | further results
40 | 497 | > 20000 | Cn1nc(NC(=O)Cn2nc(C3CC3)c3cc(Br)ccc3c2=O)ccc1=O [X-1024] | 
41 | 32 | > 20000 | CC(C)c1nn(CC(=O)N[C@@H]2CCCN(C3CC3)C2)c(=O)c2ccc(Br)cc12 [X-1035] | 
42 | 1130 | 7190 | CC(C)c1nn(CC(=O)Nc2ccc3nncn3c2)c(=O)c2ccc(OC(F)(F)F)cc12 [X-1040] | 
43 | 27 | 14800 | CC(C)c1nn(CC(=O)Nc2ccc3nncn3c2)c(=O)c2ccc(C3(F)CC3)cc12 [X-1074] | 
44 | 1470 | > 20000 | CC(C)c1nn(CC(=O)Nc2ccc3cnn(C)c3n2)c(=O)c2ccc(Br)cc12 [X-1005] | 
45 | 13000 | > 20000 | CC(C)c1nn(CC(=O)N[C@H]2C[C@@](C)(O)C2)c(=O)c2ccc(OCC(F)(F)F)cc12 [X-1039] | 
46 | > 20000 | > 20000 | CC(=O)c1nn(CC(=O)Nc2ccn(C(C)C)n2)c(=O)c2ccc(Br)cc12 [X-1014, 2-(4-acetyl-6-bromo-1-oxophthalazin-2(1H)-yl)-N-(1-isopropyl-1H-pyrazol-3-yl)acetamide] | 
47 | 1310 | > 20000 | CC(C)c1nn(CC(=O)Nc2ccc3nncn3c2)c(=O)c2ccc(C3CCC3)cc12 [X-1078] | 
48 | 16 | 1850 | CC(C)c1nn(CC(=O)Nc2ccc3nncn3c2)c(=O)c2ccc(C(C)(F)F)cc12 [X-1063] | 
49 | 33 | 19700 | CC(C)c1nn(CC(=O)Nc2ccc3nncn3c2)c(=O)c2ccc(C(C)(C)F)cc12 [X-1076] | 
50 | 128 | 4470 | CC(C)c1nn(CC(=O)Nc2ccc3nccn3n2)c(=O)c2ccc(C(C)(F)F)cc12 [X-1006] | 
51 | 819 | > 20000 | COC(C)c1nn(CC(=O)Nc2ccncn2)c(=O)c2ccc(Br)cc12 (centres unmarked) [X-1016] | 
52 | 18 | > 20000 | CCN1CC[C@H](O)[C@H](NC(=O)Cn2nc(C(C)C)c3cc(Br)ccc3c2=O)C1 (stereo in doubt) [X-1083] | 
53 | 41 | > 20000 | CC(C)c1nn(CC(=O)Nc2ccc3nncn3n2)c(=O)c2ccc(Br)cc12 [X-1004] | 
54 | 270 | 8080 | CC(C)c1nn(CC(=O)Nc2ccc3nncn3c2)c(=O)c2ccc(C(C)(C)C)cc12 [X-1048] | 
55 | 33 | 2610 | CC(C)c1nn(CC(=O)Nc2ccc3nncn3n2)c(=O)c2ccc(C3CC3)cc12 [X-1008] | 
56 | 31 | > 20000 | CCN1CCC[C@H](NC(=O)Cn2nc(C(C)C)c3cc(Br)ccc3c2=O)C1 (stereo in doubt) [X-1032] | 
57 | 506 | > 20000 | COC(C)c1nn(CC(=O)Nc2ccc3nncn3c2)c(=O)c2ccc(Br)cc12 (centres unmarked) [X-1017] | 
58 | 11000 | > 20000 | CC(C)c1nn(CC(=O)N[C@H]2C[C@@](C)(O)C2)c(=O)c2ccc(C(C)(C)O)cc12 [X-1043] | 
